Among the data in patent publication US9902696B2, “1,4-substituted piperidine derivatives” (Cephalon, Inc., priority 2015, dated 2018) are IC50 values, retold here.

Structures can show the parent of a compound that is named as a salt.

The target in one assay is T1, recombinant human baculovirus-expressed GST-tagged FASN (Homo sapiens, UniProt P49327).
T1 construct: GST
T1 sequence (P49327 whole entry): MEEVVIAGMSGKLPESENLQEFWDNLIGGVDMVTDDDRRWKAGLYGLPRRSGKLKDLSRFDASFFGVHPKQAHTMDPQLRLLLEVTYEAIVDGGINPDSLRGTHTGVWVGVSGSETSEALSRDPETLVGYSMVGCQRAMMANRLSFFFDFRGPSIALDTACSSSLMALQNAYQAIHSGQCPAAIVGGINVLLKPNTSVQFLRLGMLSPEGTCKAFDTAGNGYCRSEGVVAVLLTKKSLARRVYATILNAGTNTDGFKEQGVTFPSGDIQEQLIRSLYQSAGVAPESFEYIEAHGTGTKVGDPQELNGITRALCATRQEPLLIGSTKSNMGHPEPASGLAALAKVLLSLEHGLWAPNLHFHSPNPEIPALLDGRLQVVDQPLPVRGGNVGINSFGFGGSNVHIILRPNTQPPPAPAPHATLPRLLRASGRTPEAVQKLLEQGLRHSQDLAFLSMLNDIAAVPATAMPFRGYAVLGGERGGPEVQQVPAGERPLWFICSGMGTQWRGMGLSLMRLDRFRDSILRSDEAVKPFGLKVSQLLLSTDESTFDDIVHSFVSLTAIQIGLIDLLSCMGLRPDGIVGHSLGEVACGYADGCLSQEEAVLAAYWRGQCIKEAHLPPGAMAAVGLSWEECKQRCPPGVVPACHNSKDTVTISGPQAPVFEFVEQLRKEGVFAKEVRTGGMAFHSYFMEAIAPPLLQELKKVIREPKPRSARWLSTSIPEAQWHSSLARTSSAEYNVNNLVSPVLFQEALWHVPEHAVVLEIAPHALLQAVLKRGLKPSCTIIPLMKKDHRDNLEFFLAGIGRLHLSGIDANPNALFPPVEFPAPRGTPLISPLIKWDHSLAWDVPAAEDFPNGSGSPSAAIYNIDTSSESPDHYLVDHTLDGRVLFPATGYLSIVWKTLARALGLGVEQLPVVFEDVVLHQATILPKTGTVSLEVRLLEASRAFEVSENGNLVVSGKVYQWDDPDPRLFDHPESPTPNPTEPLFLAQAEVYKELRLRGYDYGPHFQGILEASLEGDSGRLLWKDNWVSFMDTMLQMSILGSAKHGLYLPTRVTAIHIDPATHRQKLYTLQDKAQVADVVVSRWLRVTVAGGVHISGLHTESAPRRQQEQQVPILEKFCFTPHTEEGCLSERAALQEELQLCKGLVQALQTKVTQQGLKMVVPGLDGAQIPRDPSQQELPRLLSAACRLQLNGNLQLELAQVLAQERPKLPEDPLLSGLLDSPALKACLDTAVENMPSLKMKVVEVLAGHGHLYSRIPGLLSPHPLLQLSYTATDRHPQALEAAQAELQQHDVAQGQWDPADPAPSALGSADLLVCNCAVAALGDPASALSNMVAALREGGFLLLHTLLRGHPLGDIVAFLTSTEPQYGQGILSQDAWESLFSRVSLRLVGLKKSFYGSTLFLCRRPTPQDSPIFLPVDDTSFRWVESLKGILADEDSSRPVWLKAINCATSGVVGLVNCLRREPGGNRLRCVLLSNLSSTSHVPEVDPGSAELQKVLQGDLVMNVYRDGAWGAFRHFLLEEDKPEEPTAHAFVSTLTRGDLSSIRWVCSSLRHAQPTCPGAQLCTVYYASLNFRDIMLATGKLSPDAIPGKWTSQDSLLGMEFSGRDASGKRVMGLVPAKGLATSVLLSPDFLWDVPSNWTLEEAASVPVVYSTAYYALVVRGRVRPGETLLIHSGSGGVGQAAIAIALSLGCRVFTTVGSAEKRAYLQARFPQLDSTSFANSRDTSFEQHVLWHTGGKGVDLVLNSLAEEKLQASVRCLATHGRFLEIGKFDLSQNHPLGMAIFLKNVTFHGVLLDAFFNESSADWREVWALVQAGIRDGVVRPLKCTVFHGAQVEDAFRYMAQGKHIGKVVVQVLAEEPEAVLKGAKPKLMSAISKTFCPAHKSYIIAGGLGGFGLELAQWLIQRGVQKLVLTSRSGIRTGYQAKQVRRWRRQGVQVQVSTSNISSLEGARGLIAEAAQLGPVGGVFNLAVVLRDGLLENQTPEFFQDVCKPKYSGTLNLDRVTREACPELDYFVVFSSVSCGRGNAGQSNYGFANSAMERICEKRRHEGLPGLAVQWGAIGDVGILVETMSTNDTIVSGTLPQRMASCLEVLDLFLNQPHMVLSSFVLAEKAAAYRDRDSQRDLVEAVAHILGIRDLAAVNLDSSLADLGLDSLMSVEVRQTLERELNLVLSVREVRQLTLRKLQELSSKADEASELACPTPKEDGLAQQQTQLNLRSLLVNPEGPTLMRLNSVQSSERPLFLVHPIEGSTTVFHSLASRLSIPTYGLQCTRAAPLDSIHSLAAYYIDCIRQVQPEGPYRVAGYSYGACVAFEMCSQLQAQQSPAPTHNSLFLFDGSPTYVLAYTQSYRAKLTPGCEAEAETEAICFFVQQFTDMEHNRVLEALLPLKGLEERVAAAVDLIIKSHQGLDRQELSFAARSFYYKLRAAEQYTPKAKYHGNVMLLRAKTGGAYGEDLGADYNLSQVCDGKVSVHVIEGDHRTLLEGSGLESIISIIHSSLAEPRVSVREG
As to the kind of experiment: FASN enzyme activity assay, fluorescence-based detection of CoA with CPM. In kind it is biochemical. The conditions noted are these: 5 nM FASN, 150 μM NADPH, 10 μM acetyl-CoA, 25 μM malonyl-CoA, 90 minutes incubation; read-out: IC50 data for Additional Compounds of Formulae I-V(a): Activity. In a few lines:
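Human GST-tagged FASN, baculovirus-expressed (5 nM), in 50 mM HEPES pH 7.5 with 150 μM NADPH, 10 μM acetyl-CoA, 25 μM malonyl-CoA, 0.5% DMSO; malonyl-CoA-started, 90 min. Released CoA detected with CPM (50 μM dilution), 30 min, fluorescence ex 390/em 530. IC50 from variable-slope sigmoidal fit of % inhibition versus log concentration.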
For the compound `COCCOC(=O)N1CCC(Oc2ccc(-c3ccc4cccnc4c3C)cc2)CC1` [Example 555, 2-Methoxyethyl 4-[4-(8-methyl-7-quinolyl)phenoxy]piperidine-1-carboxylate, HCl], the IC50 lay in the range of 1000 to 10000 nM.

`Cc1c(-c2ccc(OC3CCN(C(=O)NCC4CC4)CC3)cc2)ccc2cccnc12` [Example 540, N-(Cyclopropylmethyl)-4-[4-(8-methyl-7-quinolyl)phenoxy]piperidine-1-carboxamide, HCl]: the IC50 lay in the range of 1 to 99 nM.

On to `CCONC(=O)N1CCC(Oc2ccc(-c3ccc4nccn4c3Cl)cc2)CC1` [Example 573, 4-[4-(5-Chloroimidazo[1,2-a]pyridin-6-yl)phenoxy]-N-ethoxy-piperidine-1-carboxamide], for which the IC50 lay in the range of 1000 to 10000 nM.

Regarding `Cc1c(-c2ccc(OC3CCN(C(=O)Nc4cccnc4)CC3)cc2)ccc2nccn12` [Example 596, 4-[4-(5-Methylimidazo[1,2-a]pyridin-6-yl)phenoxy]-N-(3-pyridyl)piperidine-1-carboxamide], the IC50 was 1 to 99 nM.

With `Cc1c(-c2ccc(OC3CCN(C(=O)N4CCCCCC4)CC3)cc2)ccc2cccnc12` [Example 562, Azepan-1-yl-[4-[4-(8-methyl-7-quinolyl)phenoxy]-1-piperidyl]methanone], the IC50 lay in the range of 1000 to 10000 nM.

The assay is the same for the next values; noted with them: 5 nM FASN, 150 μM NADPH, 10 μM acetyl-CoA, 25 μM malonyl-CoA, 90 minutes incubation; read-out: IC50 data for Compounds of Formulae I-V/V(a): Activity.
In the case of `Nc1cc2cc(-c3ccc(OC4CCN(C(=O)[C@H]5CCCO5)CC4)cc3)ccc2cn1` [Example 436, {4-[4-(3-Aminoisoquinolin-6-yl)-phenoxy]-piperidin-1-yl}-(R)-tetrahydro-furan-2-yl-methanone], the IC50 was 1 to 99 nM.

Consider `CCC(=O)N1CCC(Oc2ccc(-c3n[nH]c4ccccc34)cc2)CC1` [Example 248, 1-{4-[4-(1H-Indazol-3-yl)-phenoxy]-piperidin-1-yl}-propan-1-one], for which the IC50 lay in the range of 100 to 999 nM.

Regarding `CCC(=O)N1CCC(Oc2ccc(-c3ccc4cccnc4c3O)cc2)CC1` [Example 188, 1-{4-[4-(8-Hydroxyquinolin-7-yl)-phenoxy]-piperidin-1-yl}-propan-1-one, HCl], the IC50 fell in the range of 100 to 999 nM.

As to `CN1CCN(c2nccc3cc(-c4ccc(OC5CCN(C(=O)[C@H]6CCCO6)CC5)cc4)ccc23)CC1` [Example 455], the IC50 was 1000 to 10000 nM.

For `CCC(=O)N1CCC(Oc2ccc(-c3ccc(OC)c(OC)c3)cc2)CC1` [Example 491, 1-[4-(3′,4′-Dimethoxy-biphenyl-4-yloxy)-piperidin-1-yl]-propan-1-one], the IC50 fell in the range of 100 to 999 nM.

Take `Cc1c(-c2ccc(OC3CCN(C(=O)C4(C#N)CC4)CC3)cc2)ccc2cccnc12` [Example 319, 1-{4-[4-(8-Methylquinolin-7-yl)-phenoxy]-piperidine-1-carbonyl}-cyclopropanecarbonitrile]: the IC50 was in the range of 1000 to 10000 nM.

For `Cc1cc2cc(-c3ccc(OC4CCN(C(=O)[C@H]5CCCO5)CC4)cc3)ccc2cn1` [Example 437, {4-[4-(3-Methylisoquinolin-6-yl)-phenoxy]-piperidin-1-yl}-(R)-tetrahydro-furan-2-yl-methanone], the IC50 is 1 to 99 nM.

Consider `O=C(C1CC1)N1CCC(Oc2ccc(-c3cnc4ccccc4c3Cl)cc2)CC1` [Example 48, {4-[4-(4-Chloroquinolin-3-yl)-phenoxy]-piperidin-1-yl}-cyclopropyl-methanone], for which the IC50 fell in the range of 1 to 99 nM.

In the case of `O=C(C1CCC1)N1CCC(Oc2ccc(-c3ccc4cccnc4c3F)cc2)CC1` [Example 24, Cyclobutyl-{4-[4-(8-fluoroquinolin-7-yl)-phenoxy]-piperidin-1-yl}-methanone], the IC50 lay in the range of 1 to 99 nM.

`CCC(=O)N1CCC(Oc2ccc(-c3ccc4occc4c3)cc2)CC1` [Example 8, 1-[4-(4-Benzofuran-5-yl-phenoxy)-piperidin-1-yl]-propan-1-one]: the IC50 lay within 100 to 999 nM.

Turning to `O=C([C@H]1CCCO1)N1CCC(Oc2ccc(-c3ccc4c(N5CCOCC5)nccc4c3)cc2)CC1` [Example 452, {4-[4-(1-Morpholin-4-yl-isoquinolin-6-yl)-phenoxy]-piperidin-1-yl}-(R)-tetrahydrofuran-2-yl-methanone], the IC50 was in the range of 1 to 99 nM.

For `CCC(=O)N1CCC(Oc2ccc(-c3ccc4ccccc4n3)cc2)CC1` [Example 40, 1-[4-(4-Quinolin-2-yl-phenoxy)-piperidin-1-yl]-propan-1-one], the IC50 is 100 to 999 nM.

For `CCC(=O)N1CCC(Oc2ccc(-c3cnc4ccccc4c3)c(OC)c2)CC1` [Example 209, 1-[4-(3-Methoxy-4-quinolin-3-yl-phenoxy)-piperidin-1-yl]-propan-1-one], the IC50 lay within 1000 to 10000 nM.

As to `Cc1ccc2cc(-c3ccc(OC4CCN(C(=O)[C@H]5CCCO5)CC4)cc3)cnc2c1` [Example 482], the IC50 was in the range of 1 to 99 nM.

As to `O=C(C1CC1)N1CCC(Oc2ccc(-c3ccn4cnnc4c3)cc2)CC1` [Example 308, Cyclopropyl-[4-(4-[1,2,4]triazolo[4,3-a]pyridin-7-yl-phenoxy)-piperidin-1-yl]-methanone], the IC50 fell in the range of 1000 to 10000 nM.

In the case of “1-{4-[4-(4-Methylisoquinolin-6-yl)-phenox]-piperidin-1-yl}-propan-1-one HCl [Example 457]”, the IC50 fell in the range of 1 to 99 nM.

As to `Cc1c(-c2ccc(OC3CCN(C(=O)C4(O)CC4)CC3)cc2)ccc2ncnn12` [Example 312, (1-Hydroxycyclopropyl)-{4-[4-(5-methyl-[1,2,4]triazolo[1,5-a]pyridin-6-yl)-phenoxy]-piperidin-1-yl}-methanone], the IC50 lay within 100 to 999 nM.

`CCC(=O)N1CCC(Oc2ccc(-c3ccc4cnc(OC)cc4c3)cc2)CC1` [Example 415, 1-{4-[4-(3-Methoxyisoquinolin-6-yl)-phenoxy]-piperidin-1-yl}-propan-1-one]: the IC50 was in the range of 1000 to 10000 nM.

In the case of `Cc1ccc2ncccc2c1-c1ccc(OC2CCN(C(=O)C3CCCO3)CC2)cc1` (stereo in doubt) [Example 354, (R)-(4-(4-(6-Methylquinolin-5-yl)phenoxy)piperidin-1-yl)(tetrahydrofuran-2-yl)methanone], the IC50 was 1 to 99 nM.

`Cc1ccc2ncc(-c3ccc(OC4CCN(C(=O)C5CC5)CC4)cc3)cc2c1` [Example 484, Cyclopropyl-{4-[4-(6-methylquinolin-3-yl)-phenoxy]-piperidin-1-yl}-methanone, HCl]: the IC50 was 100 to 999 nM.

For the compound `O=C(C1CC1)N1CCC(Oc2ccc(-c3cccc(Oc4ccccc4)c3)cc2)CC1` [Example 511, Cyclopropyl-[4-(3′-phenoxybiphenyl-4-yloxy)-piperidin-1-yl]-methanone], the IC50 lay in the range of 1000 to 10000 nM.

Regarding `Cc1c(-c2ccc(OC3CCN(C(=O)C4(N)CC4)CC3)cc2)ccc2nccn12` [Example 305, (1-Aminocyclopropyl)-{4-[4-(5-methyl-imidazo[1,2-a]pyridin-6-yl)-phenoxy]-piperidin-1-yl}-methanone], the IC50 was in the range of 100 to 999 nM.

For the compound `CC(C)C(=O)N1CCC(Oc2ccc(-c3ccc4cccnc4c3)nc2)CC1` [Example 145, 2-Methyl-1-[4-(6-quinolin-7-yl-pyridin-3-yloxy)-piperidin-1-yl]-propan-1-one, 2HCl], the IC50 lay in the range of 1000 to 10000 nM.

On to `CCOc1c(-c2ccc(OC3CCN(C(=O)C4CC4)CC3)cc2)ccc2cccnc12` [Example 168, Cyclopropyl-{4-[4-(8-ethoxyquinolin-7-yl)-phenoxy]-piperidin-1-yl}-methanone, HCl], for which the IC50 is 100 to 999 nM.

In the case of `CCC(=O)N1CCC(Oc2ccc(-c3ccc4cccnc4c3OCCOC)cc2)CC1` [Example 178, 1-[4-[4-[8-(2-Methoxyethoxy)-7-quinolyl]phenoxy]-1-piperidyl]propan-1-one, HCl], the IC50 fell in the range of 100 to 999 nM.

Regarding `CCC(=O)N1CCC(Oc2ccc(-c3ccc4cccnc4c3F)cc2)CC1` [Example 22], the IC50 was 1 to 99 nM.

Take `NC(=O)C1(C(=O)N2CCC(Oc3ccc(-c4ccc5cncn5c4)cc3)CC2)CC1` [Example 301, 1-[4-(4-Imidazo[1,5-a]pyridin-6-yl-phenoxy)-piperidine-1-carbonyl]-cyclopropanecarboxylic acid amide]: the IC50 is 1000 to 10000 nM.

`O=C([C@H]1CCCO1)N1CCC(Oc2ccc(-c3ccc4cnccc4c3)cc2)CC1` [Example 467, [4-[4-(6-Isoquinolyl)phenoxy]-1-piperidyl]-[(2R)-tetrahydrofuran-2-yl]-methanone HCl]: the IC50 lay in the range of 1 to 99 nM.

On to `Cc1cc(-c2ccc(OC3CCN(C(=O)C4CC4)CC3)cc2)c2cccnc2c1` [Example 349, Cyclopropyl-{4-[4-(7-methyl-quinolin-5-yl)-phenoxy]-piperidin-1-yl}-methanone, HCl], for which the IC50 lay in the range of 1 to 99 nM.

With `CCC(=O)N1CCC(Oc2ccc(-c3cncc(Oc4ccccc4)c3)cc2)CC1` [Example 397, 1-{4-[4-(5-Phenoxypyridin-3-yl)-phenoxy]-piperidin-1-yl}-propan-1-one, TFA], the IC50 fell in the range of 1000 to 10000 nM.

As to `CC(C)Oc1c(-c2ccc(OC3CCN(C(=O)C4CC4)CC3)cc2)ccc2cccnc12` [Example 170, Cyclopropyl-{4-[4-(8-isopropoxyquinolin-7-yl)-phenoxy]-piperidin-1-yl}-methanone, HCl], the IC50 lay within 100 to 999 nM.

As for `CCC(=O)N1CCC(Oc2ccc(-c3ccc4ccc(C)nc4c3F)cc2)CC1` [Example 25, 1-{4-[4-(8-Fluoro-2-methylquinolin-7-yl)-phenoxy]-piperidin-1-yl}-propan-1-one], the IC50 fell in the range of 1000 to 10000 nM.

Regarding `Cc1cc(-c2ccc(OC3CCN(C(=O)[C@H]4CCCO4)CC3)cc2)cn2ccnc12` [Example 283, {4-[4-(8-Methylimidazo[1,2-a]pyridin-6-yl)-phenoxy]-piperidin-1-yl}-(R)-tetrahydrofuran-2-yl-methanone], the IC50 was in the range of 1 to 99 nM.

In the case of `O=C(C1CCC1)N1CCC(Oc2ccc(-c3cnc4c(c3)CCCC4)cc2)CC1` [Example 20, Cyclobutyl-{4-[4-(5,6,7,8-tetrahydroquinolin-3-yl)-phenoxy]-piperidin-1-yl}-methanone], the IC50 fell in the range of 1000 to 10000 nM.
